Laboratory results as given in ChEMBL document CHEMBL1781882, “Neuroprotective effects of furopyrazole derivative of benzylindazole analogs on C2 ceramide-induced apoptosis in cultured cortical neurons” (Bioorg Med Chem Lett, 2009).
The source made the active and inactive calls. The calls are words filed in the database; no cut-off is given here.

Assays:
Cortical neurone [1] = assay: Neuroprotective activity in Sprague-Dawley rat cortical neurons assessed as reduction in C2 ceramide-induced cell death treated for 2 hrs followed by challenged with C2 ceramide for 24 hrs by MTT assay; assay type: functional
[2] = Neuroprotective activity in Sprague-Dawley rat cortical neurons assessed as reduction in C2 ceramide-induced cell death measured as cell survival at 10 uM for 2 hrs followed by challenged with C2 ceramide for 24 hrs by MTT assay; assay type: functional, Cortical neurone
[3] = (§1) Neuroprotective activity in Sprague-Dawley rat cortical neurons assessed as reduction in C2 ceramide-induced cell death measured as cell survival at 10 uM for 2 hrs followed by challenged with C2 ceramide for 24 hrs by MTT assay in presence of U0126 ERK1/2 inhibitor (reference value: 100.2 +/- 1.7%); assay type: functional, Cortical neurone
[4] = Neuroprotective activity in Sprague-Dawley rat cortical neurons assessed as reduction in C2 ceramide-induced cell death measured as cell survival at 5 uM for 2 hrs followed by challenged with C2 ceramide for 24 hrs by MTT assay; assay type: functional, Cortical neurone
[5] = as §1, with “PD98059” for “U0126”; assay type: functional, Cortical neurone
Cortical neurone [6] = assay: Neuroprotective activity in Sprague-Dawley rat cortical neurons assessed as reduction in C2 ceramide-induced cell death at 30 uM for 2 hrs followed by challenged with C2 ceramide for 24 hrs by MTT assay; assay type: functional
Cortical neurone [7] = assay: Neuroprotective activity in Sprague-Dawley rat cortical neurons assessed as attenuation of C2 ceramide-induced apoptosis at 10 uM challenged with C2 ceramide for 24 hrs by Hoechst 33258 staining; assay type: functional
[8] = Neuroprotective activity in Sprague-Dawley rat cortical neurons assessed as reduction in C2 ceramide-induced cell death measured as cell survival at 1 uM for 2 hrs followed by challenged with C2 ceramide for 24 hrs by MTT assay; assay type: functional, Cortical neurone
[9] = Neuroprotective activity in Sprague-Dawley rat cortical neurons assessed as reduction in C2 ceramide-induced cell death measured as cell survival at 2.5 uM for 2 hrs followed by challenged with C2 ceramide for 24 hrs by MTT assay; assay type: functional, Cortical neurone
[10] = Cytotoxicity against Sprague-Dawley rat cortical neurons at 10 uM for 24 hrs by MTT assay; settings: cortical neurone

SMILES	Activity (Cortical neurone [1])	Activity [2] [%]	Activity [3] [%]	Activity [4] [%]	Activity [5] [%]	Activity (Cortical neurone [6])	Activity (Cortical neurone [7])	Activity [8] [%]	Activity [9] [%]	Activity [10]
Cc1cc2c(o1)c(-c1ccc(C(=O)O)cc1)nn2Cc1ccccc1	inactive									
Cc1cc2c(o1)c(-c1ccc(CO)cc1)nn2-c1ccccc1	Active	100.2	71.9	90.1	70.3	inactive	Active	75.6	81.5	Non-toxic
Cc1cc2c(o1)c(-c1ccc(C(=O)O)cc1)nn2-c1ccccc1	inactive									
